# Test results taken from patent US20250320213A1, “Nitrogen-Containing Heterocyclic Compounds” (Pfizer Inc., priority 2024, published 2025).
# Target: T1, STAT6 (Homo sapiens, UniProt P42226)
# T1 construct: stably transfected HaCaT keratinocyte cell line, which expresses NanoLuc luciferase reporter gene under the transcriptional control of the STAT6 responsive promoter; endogenous in cells; host or cells: HaCaT keratinocyte reporter cell line (stably transfected with a NanoLuc reporter)
# T1 sequence (P42226 1-847): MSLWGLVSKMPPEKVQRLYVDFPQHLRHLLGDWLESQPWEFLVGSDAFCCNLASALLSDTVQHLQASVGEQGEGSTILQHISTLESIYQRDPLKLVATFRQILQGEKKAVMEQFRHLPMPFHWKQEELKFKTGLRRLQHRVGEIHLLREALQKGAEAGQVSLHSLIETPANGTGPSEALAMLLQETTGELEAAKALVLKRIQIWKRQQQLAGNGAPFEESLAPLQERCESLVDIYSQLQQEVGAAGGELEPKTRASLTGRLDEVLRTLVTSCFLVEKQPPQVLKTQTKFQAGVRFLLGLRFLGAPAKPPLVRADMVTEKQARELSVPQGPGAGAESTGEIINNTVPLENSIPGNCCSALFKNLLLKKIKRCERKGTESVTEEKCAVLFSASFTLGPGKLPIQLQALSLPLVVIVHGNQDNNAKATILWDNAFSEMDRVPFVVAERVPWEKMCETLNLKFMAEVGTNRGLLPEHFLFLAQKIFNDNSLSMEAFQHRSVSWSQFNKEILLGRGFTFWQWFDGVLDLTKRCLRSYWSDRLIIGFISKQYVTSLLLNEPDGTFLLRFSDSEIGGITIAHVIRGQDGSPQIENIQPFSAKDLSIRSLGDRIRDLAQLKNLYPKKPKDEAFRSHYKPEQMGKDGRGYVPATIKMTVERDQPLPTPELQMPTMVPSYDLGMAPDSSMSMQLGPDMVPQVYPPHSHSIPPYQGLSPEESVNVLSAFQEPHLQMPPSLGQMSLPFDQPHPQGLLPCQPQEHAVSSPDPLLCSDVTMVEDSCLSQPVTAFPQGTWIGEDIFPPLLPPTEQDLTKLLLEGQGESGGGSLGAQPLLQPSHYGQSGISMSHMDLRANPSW
# Experiment: STAT6 Reporter Luciferase Assay (IL-13 stimulated HaCaT keratinocyte NanoLuc reporter cells)
# Type: cell-based
# Details: IL-13 stimulated HaCaT STAT6 NanoLuc reporter cells; read-out: Reporter EC50
# In short: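 Stably transfected HaCaT cells carrying NanoLuc under the STAT6-responsive IL-13Ra2 promoter were pre-treated with compound (11-point, 4-fold series, duplicate) for 2 h at 37 °C, then stimulated with 0.12 nM IL-13 for 4 h. Nano-Glo luminescence was read after 15 min.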
row,EC50,SMILES
1,44 nM,"Cc1cnn2c1CN(C(=O)c1ccc(N3CCc4c(c(C(=O)NCc5ccc(NC(=O)N(C)C)cc5)nn4C(C)C)C3)nc1)CC2 [Example 419, N-(4-(3,3-dimethylureido)benzyl)-1-isopropyl-5-(5-(3-methyl-4,5,6,7-tetrahydropyrazolo[1,5-a]pyrazine-5-carbonyl)pyridin-2-yl)-4,5,6,7-tetrahydro-1H-pyrazolo[4,3-c]pyridine-3-carboxamide]"
2,18 nM,"CC(C)n1nc(C(=O)NCc2ccc(NC(=O)N(C)C)cc2)c2c1CCN(c1ccc(C(=O)N3CCc4c(ncn4C)C3)cn1)C2 [Example 421, N-(4-(3,3-dimethylureido)benzyl)-1-isopropyl-5-(5-(1-methyl-4,5,6,7-tetrahydro-1H-imidazo[4,5-c]pyridine-5-carbonyl)pyridin-2-yl)-4,5,6,7-tetrahydro-1H-pyrazolo[4,3-c]pyridine-3-carboxamide]"
3,19 nM,"CC(C)n1nc(C(=O)NCc2ccc(NC(=O)N(C)C)cc2)c2c1CCN(c1ccc(C(=O)N3CCc4ccc(C#N)cc4C3)cn1)C2 [Example 422, 5-(5-(7-cyano-1,2,3,4-tetrahydroisoquinoline-2-carbonyl)pyridin-2-yl)-N-(4-(3,3-dimethylureido)benzyl)-1-isopropyl-4,5,6,7-tetrahydro-1H-pyrazolo[4,3-c]pyridine-3-carboxamide]"
4,29 nM,"Cc1nc2c(o1)CCN(C(=O)c1ccc(N3CCc4c(c(C(=O)NCc5ccc(NC(=O)N(C)C)cc5)nn4C(C)C)C3)nc1)C2 [Example 423, N-(4-(3,3-dimethylureido)benzyl)-1-isopropyl-5-(5-(2-methyl-4,5,6,7-tetrahydrooxazolo[4,5-c]pyridine-5-carbonyl)pyridin-2-yl)-4,5,6,7-tetrahydro-1H-pyrazolo[4,3-c]pyridine-3-carboxamide]"
5,46 nM,"CC(C)n1nc(C(=O)NCc2ccc(NC(=O)N(C)C)cc2)c2c1CCN(c1ccc(C(=O)N3Cc4ccnn4C(C)C3)cn1)C2 (stereo not shown) [Example 424, N-(4-(3,3-dimethylureido)benzyl)-1-isopropyl-5-(5-(7-methyl-4,5,6,7-tetrahydropyrazolo[1,5-a]pyrazine-5-carbonyl)pyridin-2-yl)-4,5,6,7-tetrahydro-1H-pyrazolo[4,3-c]pyridine-3-carboxamide]"
6,34 nM,"CC(C)n1nc(C(=O)NCc2ccc(NC(=O)N(C)C)cc2)c2c1CCN(c1ccc(C(=O)N3CCn4nccc4C3)cn1)C2 [Example 425, N-(4-(3,3-dimethylureido)benzyl)-1-isopropyl-5-(5-(4,5,6,7-tetrahydropyrazolo[1,5-a]pyrazine-5-carbonyl)pyridin-2-yl)-4,5,6,7-tetrahydro-1H-pyrazolo[4,3-c]pyridine-3-carboxamide]"
7,13 nM,"CC(C)n1nc(C(=O)NCc2ccc(NC(=O)N(C)C)cc2)c2c1CCN(c1ccc(C(=O)N3Cc4ccccc4[C@H]3C)cn1)C2 [Example 426, (R)-N-(4-(3,3-dimethylureido)benzyl)-1-isopropyl-5-(5-(1-methylisoindoline-2-carbonyl)pyridin-2-yl)-4,5,6,7-tetrahydro-1H-pyrazolo[4,3-c]pyridine-3-carboxamide]"
8,282 nM,"CC(C)n1nc(C(=O)NCc2ccc(NC(=O)N(C)C)cc2)c2c1CCN(c1ccc(C(=O)N3CCn4nncc4C3)cn1)C2 [Example 427, N-(4-(3,3-dimethylureido)benzyl)-1-isopropyl-5-(5-(4,5,6,7-tetrahydro-[1,2,3]triazolo[1,5-a]pyrazine-5-carbonyl)pyridin-2-yl)-4,5,6,7-tetrahydro-1H-pyrazolo[4,3-c]pyridine-3-carboxamide]"
9,186 nM,"CC(C)n1nc(C(=O)NCc2ccc(NC(=O)N(C)C)cc2)c2c1CCN(c1ccc(C(=O)N3CCc4oncc4C3)cn1)C2 [Example 432, N-(4-(3,3-dimethylureido)benzyl)-1-isopropyl-5-(5-(4,5,6,7-tetrahydroisoxazolo[4,5-c]pyridine-5-carbonyl)pyridin-2-yl)-4,5,6,7-tetrahydro-1H-pyrazolo[4,3-c]pyridine-3-carboxamide]"
10,276 nM,"CC(C)n1nc(C(=O)NCc2ccc(NC(=O)N(C)C)cc2)c2c1CCN(c1ccc(C(=O)N3CCc4cncnc4C3)cn1)C2 [Example 433, N-(4-(3,3-dimethylureido)benzyl)-1-isopropyl-5-(5-(5,6,7,8-tetrahydropyrido[3,4-d]pyrimidine-7-carbonyl)pyridin-2-yl)-4,5,6,7-tetrahydro-1H-pyrazolo[4,3-c]pyridine-3-carboxamide]"
11,82 nM,"CC(C)n1nc(C(=O)NCc2ccc(NC(=O)N(C)C)cc2)c2c1CCN(c1ccc(C(=O)N3CCc4cnccc4C3)cn1)C2 [Example 434, N-(4-(3,3-dimethylureido)benzyl)-1-isopropyl-5-(5-(1,2,3,4-tetrahydro-2,6-naphthyridine-2-carbonyl)pyridin-2-yl)-4,5,6,7-tetrahydro-1H-pyrazolo[4,3-c]pyridine-3-carboxamide]"
12,10 nM,"CC(C)n1nc(C(=O)NCc2ccc(NC(=O)N(C)C)cc2)c2c1CCN(c1ccc(C(=O)N3CCc4ccccc4C3)cn1)C2 [Example 435, N-(4-(3,3-dimethylureido)benzyl)-1-isopropyl-5-(5-(1,2,3,4-tetrahydroisoquinoline-2-carbonyl)pyridin-2-yl)-4,5,6,7-tetrahydro-1H-pyrazolo[4,3-c]pyridine-3-carboxamide]"
13,22 nM,"CC(C)n1nc(C(=O)NCc2ccc(NC(=O)N(C)C)cc2)c2c1CCN(c1ccc(C(=O)N3CCc4cc(C#N)ccc4C3)cn1)C2 [Example 436, 5-(5-(6-cyano-1,2,3,4-tetrahydroisoquinoline-2-carbonyl)pyridin-2-yl)-N-(4-(3,3-dimethylureido)benzyl)-1-isopropyl-4,5,6,7-tetrahydro-1H-pyrazolo[4,3-c]pyridine-3-carboxamide]"
14,105 nM,"CC(C)n1nc(C(=O)NCc2ccc(NC(=O)N(C)C)cc2)c2c1CCN(c1ccc(C(=O)N3CCn4cncc4C3)cn1)C2 [Example 438, N-(4-(3,3-dimethylureido)benzyl)-1-isopropyl-5-(5-(5,6,7,8-tetrahydroimidazo[1,5-a]pyrazine-7-carbonyl)pyridin-2-yl)-4,5,6,7-tetrahydro-1H-pyrazolo[4,3-c]pyridine-3-carboxamide]"
15,88 nM,"CC(C)n1nc(C(=O)NCc2ccc(NC(=O)N(C)C)cc2)c2c1CCN(c1ccc(C(=O)N3CCn4c(cccc4=O)C3)cn1)C2 [Example 439, N-(4-(3,3-dimethylureido)benzyl)-1-isopropyl-5-(5-(6-oxo-1,3,4,6-tetrahydro-2H-pyrido[1,2-a]pyrazine-2-carbonyl)pyridin-2-yl)-4,5,6,7-tetrahydro-1H-pyrazolo[4,3-c]pyridine-3-carboxamide]"
16,16 nM,"Cc1cc2c(cn1)CN(C(=O)c1ccc(N3CCc4c(c(C(=O)NCc5ccc(NC(=O)N(C)C)cc5)nn4C(C)C)C3)nc1)C2 [Example 440, N-(4-(3,3-dimethylureido)benzyl)-1-isopropyl-5-(5-(6-methyl-2,3-dihydro-1H-pyrrolo[3,4-c]pyridine-2-carbonyl)pyridin-2-yl)-4,5,6,7-tetrahydro-1H-pyrazolo[4,3-c]pyridine-3-carboxamide]"
17,2 nM,"Cc1cccc2c1CN(C(=O)c1ccc(N3CCc4c(c(C(=O)NCc5ccc(NC(=O)N(C)C)cc5)nn4C(C)C)C3)nc1)C2 [Example 441, N-(4-(3,3-dimethylureido)benzyl)-1-isopropyl-5-(5-(4-methylisoindoline-2-carbonyl)pyridin-2-yl)-4,5,6,7-tetrahydro-1H-pyrazolo[4,3-c]pyridine-3-carboxamide]"
18,2 nM,"CC(C)n1nc(C(=O)NCc2ccc(NC(=O)N(C)C)cc2)c2c1CCN(c1ccc(C(=O)N3Cc4ccccc4C3)cn1)C2 [Example 442, N-(4-(3,3-dimethylureido)benzyl)-5-(5-(isoindoline-2-carbonyl)pyridin-2-yl)-1-isopropyl-4,5,6,7-tetrahydro-1H-pyrazolo[4,3-c]pyridine-3-carboxamide]"
19,311 nM,"Cc1nnn2c1CN(C(=O)c1ccc(N3CCc4c(c(C(=O)NCc5ccc(NC(=O)N(C)C)cc5)nn4C(C)C)C3)nc1)CC2 [Example 455, N-(4-(3,3-dimethylureido)benzyl)-1-isopropyl-5-(5-(3-methyl-4,5,6,7-tetrahydro-[1,2,3]triazolo[1,5-a]pyrazine-5-carbonyl)pyridin-2-yl)-4,5,6,7-tetrahydro-1H-pyrazolo[4,3-c]pyridine-3-carboxamide]"
